Source: patent publication US4413009A, “N-((Alkylamino)carbonyl)-N-(((alkylamino)carbonyl)oxy)acylamides with antineoplastic activity” (priority 1982, dated 1983)

Key:
HeLa cells = test: HeLa cell colony cytotoxicity / growth inhibition test; type: cell-based, human; conditions: 8 days, 0-50 μg/ml
Description: HeLa cells were seeded in 24-well tissue culture plates at a concentration of 30 cells per well in 1 ml of growth medium (Eagle's minimum essential medium with 5 percent HIFCS). The plates were incubated at 36° C. for 24 hours after which the growth medium was removed. The cells were resuspended in 1 ml of fresh growth medium described above together with a measured quantity of (0-50 μg/ml) of one of the compounds of this invention. The 0 μg/ml concentration served as a control. The tissue culture plates were then incubated at 36° C. for 8 days at which time the medium was removed and the cells were fixed and stained with 0.1% crystal violet in 20% ethanol. The HeLa cell colonies were counted macroscopically, and comparisons of colony size in treated and control wells were made. Test compounds were considered cytotoxic at concentrations which reduced the number of HeLa cell colonies compared to control by 50% or more. Test compounds of the invention were considered to cause HeLa cell growth inhibition at concentrations which reduced the size of colonies by a measurable amount when compared to control.

P388 leukemia = test: Antineoplastic activity against P388 lymphocytic leukemia in mice (IP), survival time and toxicity day survivors; type: in vivo, mice (CDF1); conditions: for Toxicity Day Survivors: survivors/started
Description: (A) Test mice (CDF1 mice) were injected intraperitoneally (IP) with ascitic fluid containing 10^6 cells of P388 lymphocytic leukemia. The test compound was administered in a sialine -Tween 80 carrier at the appropriate dosage, IP daily for 9 days; the initial treatment performed the first day after tumor inoculation. Control mice received no compound.

[1] = test system: MX-1 human breast xenograft; test: Activity against MX-1 human breast xenograft in subrenal capsule of athymic mice, tumor size change and toxicity day survivors; type: in vivo, human (xenograft in athymic Swiss Nu/Nu mice); conditions: survivors/started
Description: (B) A tumor fragment (MX-1 human breast xenograft) having a diameter of between 9 and 12 ocular micrometer units (OMU) (approximately 1×1×1 millimeter) was implanted and measured in situ in the subrenal capsule of athymic Swiss (Nu/Nu Swiss) mice. The appropriate dosage of the test compound in a saline carrier was administered by subcutaneous injection once daily for 10 days; the initial treatment was performed on the first day after tumor implant. No test compound was administered to the control mice. Test mice were sacrificed on the eleventh day and tumor size noted. The change in tumor diameter (from day 0 (implant day) to day 11 (sacrifice day)) as compared with the tumor size of the control was used as an evaluation of tumor growth or regression.

[2] = Experiment No. 1, 50.00 mg/kg per injection IP daily for 9 days
[3] = Experiment No. 2, 12.50 mg/kg per injection IP daily for 9 days
[4] = Experiment No. 2, 25.00 mg/kg per injection IP daily for 9 days
[5] = Experiment No. 2, 50.00 mg/kg per injection IP daily for 9 days

## CNC(=O)ON(C(C)=O)C(=O)NC [Example 1, N-((Methylamino)carbonyl)-N-(((methylamino)carbonyl)oxy)acetamide]
HeLa cells
  Cell Growth Inhibition: concentration at which the size of the HeLa colonies were reduced by a measurable amount (as compared to control): 12.5 µg/mL
P388 leukemia; 50 mg/kg per injection, one experiment
  median survival time of the test animals (in words): increased the median survival time
P388 leukemia; 12.50, 25 and 50 mg/kg per injection, another experiment
  median survival time of the test animals (in words): increased the median survival time
P388 leukemia; [2]
  T/C % (median survival time, treated vs control): 142%
  Toxicity Day Survivors: 06/06
P388 leukemia; Experiment No. 1, 100.00 mg/kg per injection IP daily for 9 days
  Toxicity Day Survivors: 01/06
P388 leukemia; Experiment No. 1, 200.00 mg/kg per injection IP daily for 9 days
  Toxicity Day Survivors: 00/06
P388 leukemia; [3]
  T/C % (median survival time, treated vs control): 131%
  Toxicity Day Survivors: 06/06
P388 leukemia; [4]
  T/C % (median survival time, treated vs control): 126%
  Toxicity Day Survivors: 06/06
P388 leukemia; [5]
  T/C % (median survival time, treated vs control): 141%
  Toxicity Day Survivors: 06/06
P388 leukemia; Experiment No. 2, 100.00 mg/kg per injection IP daily for 9 days
  Toxicity Day Survivors: 03/06
P388 leukemia; Table 3 data
  median survival time of the test mice afflicted with P388 leukemia (in words): increased the median survival time
[1]; Experiment 1, 12.5 mg/kg s.c. daily for 10 days
  Toxicity Day Survivors: 03/03
[1]; Experiment 1, 25 mg/kg s.c. daily for 10 days
  Toxicity Day Survivors: 03/03
[1]; Experiment 1, 50 mg/kg s.c. daily for 10 days
  Toxicity Day Survivors: 03/03
[1]; Experiment 1, 100 mg/kg s.c. daily for 10 days
  Toxicity Day Survivors: 01/03
[1]; Experiment 2, 25 mg/kg s.c. daily for 10 days
  Toxicity Day Survivors: 06/06
[1]; Experiment 2, 50 mg/kg s.c. daily for 10 days
  Toxicity Day Survivors: 06/06
[1]; Experiment 2, 100 mg/kg s.c. daily for 10 days
  Toxicity Day Survivors: 06/06
[1]; Experiment 2, 200 mg/kg s.c. daily for 10 days
  Toxicity Day Survivors: 05/06
[1]; Experiment 3, 25 mg/kg s.c. daily for 10 days
  Toxicity Day Survivors: 06/06
[1]; Experiment 3, 50 mg/kg s.c. daily for 10 days
  Toxicity Day Survivors: 06/06
[1]; Experiment 3, 100 mg/kg s.c. daily for 10 days
  Toxicity Day Survivors: 06/06
[1]; Experiment 3, 200 mg/kg s.c. daily for 10 days
  Toxicity Day Survivors: 00/06
[1]; Experiment 4, 25 mg/kg s.c. daily for 10 days
  Toxicity Day Survivors: 03/03
[1]; Experiment 4, 50 mg/kg s.c. daily for 10 days
  Toxicity Day Survivors: 02/02
[1]; Experiment 4, 100 mg/kg s.c. daily for 10 days
  Toxicity Day Survivors: 03/03
[1]; Experiment 4, 200 mg/kg s.c. daily for 10 days
  Toxicity Day Survivors: 01/03

## O=C(Nc1ccccc1)ON(C(=O)Nc1ccccc1)C(=O)C1CC1 [Example 28, N-((Phenylamino)carbonyl)-N-(((phenylamino)carbonyl)oxy)cyclopropanecarboxamide]
HeLa cells
  Cell Growth Inhibition: concentration at which the size of the HeLa colonies were reduced by a measurable amount (as compared to control): 50 µg/mL

## O=C(NC1CCCCC1)ON(C(=O)NC1CCCCC1)C(=O)C1CC1 [Example 29, N-((Cyclohexylamino)carbonyl)-N-(((cyclohexylamino)carbonyl)oxy)cyclopropanecarboxamide]
HeLa cells
  Cell Growth Inhibition: concentration at which the size of the HeLa colonies were reduced by a measurable amount (as compared to control): 12.5 µg/mL

## CNC(=O)ON(C(=O)NC)S(C)(=O)=O [Example 30, N-((Methylamino)carbonyl)-N-(((methyl-amino)carbonyl)oxy)methanesulfamide]
HeLa cells
  Cell Growth Inhibition: concentration at which the size of the HeLa colonies were reduced by a measurable amount (as compared to control): 3.1 µg/mL

## CCNC(=O)ON(C(=O)NCC)S(C)(=O)=O [Example 31, N-((Ethylamino)carbonyl)-N-(((ethylamino)-carbonyl)oxy)-methanesulfamide]
HeLa cells
  Cell Growth Inhibition: concentration at which the size of the HeLa colonies were reduced by a measurable amount (as compared to control): 3.1 µg/mL
